The values below come from ChEMBL document CHEMBL4680259, “Discovery of bazedoxifene analogues targeting glycoprotein 130” (Eur J Med Chem, 2020).

The test system of series [1] is A549. Kind of series: Induction of apoptosis in human A549 cells assessed as increase in cleaved caspase-7 level at 3 to 9 uM incubated for 24 hrs by Western blot analysis. To be noted: dose 3-9 µM. The format is functional, cell-based. Background: A western blot detects proteins with antibodies after separation by electrophoresis.
Series [2] has as its system A549. Nature of the series: Induction of apoptosis in human A549 cells assessed as late apoptotic cells at 3 uM incubated for 24 hrs by annexin V-FITC and propidium iodide staining based flow cytometry analysis (reference value: 1.4 %). It is filed as functional.
Series [3] deals with A549. Kind of series: Antimigratory activity against human A549 cells assessed as reduction in cell migration measured after 24 hrs by scratch wound healing assay. The format is functional, cell-based. To be noted: dose 3-6 µM.
Series [4] can be described thus: AUC (0 to t) in rat at 0.5 mg/kg, iv. It is filed as ADME, organism-based. To be noted: in vivo. Also on record: dose 0.5 mg/kg.
Series [5] deals with A549. Nature of the series: Induction of ROS generation in human A549 cells assessed as fold increase in ROS level at 6 uM after 24 hrs by DCFH-DA staining based flow cytometric analysis relative to control. It is filed as functional. (A flow cytometer gives signals particle by particle.)
Series [6] concerns A549. Nature of the series: Induction of apoptosis in human A549 cells assessed as late apoptotic cells at 9 uM incubated for 24 hrs by annexin V-FITC and propidium iodide staining based flow cytometry analysis (reference value: 1.4 %). The format is functional.
Series [7] has as its system A549. Nature of the series: Induction of apoptosis in human A549 cells assessed as necrotic cells at 9 uM incubated for 24 hrs by annexin V-FITC and propidium iodide staining based flow cytometry analysis (reference value: 0.4 %). It is filed as functional.
Series [8] can be described thus: AUC (0 to infinity) in rat at 0.5 mg/kg, iv. On the set-up: route intravenous, time infinity, dose 0.5 mg/kg. To be noted: in vivo. It is filed as ADME, organism-based.
Series [9] in a line: Bioavilability in rat at 5 mg/kg, ig. The format is ADME, organism-based. To be noted: in vivo, po.
The nature of series [10]: Mean residence time in rat at 0.5 mg/kg, iv. The format is ADME, organism-based. To be noted: in vivo.
For series [11], the target named is T1, Interleukin-6 receptor subunit beta (Homo sapiens) (UniProt P40189).
T1 sequence (whole entry): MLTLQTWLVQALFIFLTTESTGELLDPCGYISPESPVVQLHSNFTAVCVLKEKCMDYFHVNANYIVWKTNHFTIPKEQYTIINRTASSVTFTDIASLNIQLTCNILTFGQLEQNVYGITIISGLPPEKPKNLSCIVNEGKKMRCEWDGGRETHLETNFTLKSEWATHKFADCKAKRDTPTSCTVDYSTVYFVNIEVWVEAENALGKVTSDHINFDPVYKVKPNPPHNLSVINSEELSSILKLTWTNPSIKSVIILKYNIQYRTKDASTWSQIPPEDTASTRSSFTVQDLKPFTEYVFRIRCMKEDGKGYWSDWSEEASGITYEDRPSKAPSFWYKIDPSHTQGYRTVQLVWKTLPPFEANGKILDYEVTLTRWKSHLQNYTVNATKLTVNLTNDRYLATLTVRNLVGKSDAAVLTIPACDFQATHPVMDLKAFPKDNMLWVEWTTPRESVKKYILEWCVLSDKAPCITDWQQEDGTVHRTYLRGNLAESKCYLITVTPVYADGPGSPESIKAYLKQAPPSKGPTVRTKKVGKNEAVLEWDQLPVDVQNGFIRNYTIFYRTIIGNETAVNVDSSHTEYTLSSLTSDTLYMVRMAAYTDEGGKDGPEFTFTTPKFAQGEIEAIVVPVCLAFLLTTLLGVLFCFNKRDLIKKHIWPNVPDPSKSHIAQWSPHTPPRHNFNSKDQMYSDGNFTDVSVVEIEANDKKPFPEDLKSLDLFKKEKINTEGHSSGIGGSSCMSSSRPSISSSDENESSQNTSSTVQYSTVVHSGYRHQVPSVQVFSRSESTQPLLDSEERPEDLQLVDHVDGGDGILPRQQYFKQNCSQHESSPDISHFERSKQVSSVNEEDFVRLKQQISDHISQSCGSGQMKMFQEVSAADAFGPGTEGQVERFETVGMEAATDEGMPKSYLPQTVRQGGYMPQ
Kind of series: Binding affinity to GP130 in human A549 cell lysates assessed as decrease in pronase mediated protein degradation by measuring increase in abundance of GP130 band at 100 to 1000 uM preincubated for 1 hr followed by pronase addition for 30 mins by DARTS assay. It is filed as subcellular. To be noted: dose 100-1000 µM, time 90.0 min.

Series [12] has as its target T1, Interleukin-6 receptor subunit beta (Homo sapiens). Nature of the series: Binding affinity to D2/D3 domain of FLAG-tagged GP130 (unknown origin) expressed in HEK293 cells assessed as inhibition of rhIL6/Myc-tagged IL6R interaction with GP130 at 10 uM preincubated for 4 hrs followed by stimulation with recombinant human IL6 for 30 mins by co-immunoprecipitation method. It is filed as cell-based. To be noted: time 270.0 min.

Series [13] in a line: AUC (0 to t) in rat at 5 mg/kg, ig. Also on record: dose 5 mg/kg. To be noted: in vivo, po. The format is ADME, organism-based.
A short description of series [14]: Clearance in rat at 5 mg/kg, ig. It is filed as ADME, organism-based. To be noted: in vivo, po.
Series [15] relates to A549. Kind of series: Induction of apoptosis in human A549 cells assessed as early apoptotic cells at 6 uM incubated for 24 hrs by annexin V-FITC and propidium iodide staining based flow cytometry analysis (reference value: 0.5 %). It is filed as functional.
In the next series the test system is Mus musculus. Nature of the series: Inhibition of phosphorylated STAT3 levels in tumor tissue of nude mouse xenografted with human A549 cells at 10 to 20 mg/kg, ip administered daily for 21 days by western blot analysis. It is filed as functional, organism-based. To be noted: dose 10-20 mg/kg, time 21.0 day. A general note: In xenograft studies the graft and the host belong to different species.

Series [16] concerns A549. Nature of the series: Induction of apoptosis in human A549 cells assessed as early apoptotic cells at 9 uM incubated for 24 hrs by annexin V-FITC and propidium iodide staining based flow cytometry analysis (reference value: 0.5 %). It is filed as functional.
Series [17] can be described thus: Acute toxicity in ICR mouse assessed as mortality at 120 mg/kg measured after 2 weeks. The format is organism-based. To be noted: in vivo, 336 h.
For the next series, the target named is T2, Estrogen receptor (Homo sapiens, UniProt P03372).
T2 sequence (P03372 whole entry): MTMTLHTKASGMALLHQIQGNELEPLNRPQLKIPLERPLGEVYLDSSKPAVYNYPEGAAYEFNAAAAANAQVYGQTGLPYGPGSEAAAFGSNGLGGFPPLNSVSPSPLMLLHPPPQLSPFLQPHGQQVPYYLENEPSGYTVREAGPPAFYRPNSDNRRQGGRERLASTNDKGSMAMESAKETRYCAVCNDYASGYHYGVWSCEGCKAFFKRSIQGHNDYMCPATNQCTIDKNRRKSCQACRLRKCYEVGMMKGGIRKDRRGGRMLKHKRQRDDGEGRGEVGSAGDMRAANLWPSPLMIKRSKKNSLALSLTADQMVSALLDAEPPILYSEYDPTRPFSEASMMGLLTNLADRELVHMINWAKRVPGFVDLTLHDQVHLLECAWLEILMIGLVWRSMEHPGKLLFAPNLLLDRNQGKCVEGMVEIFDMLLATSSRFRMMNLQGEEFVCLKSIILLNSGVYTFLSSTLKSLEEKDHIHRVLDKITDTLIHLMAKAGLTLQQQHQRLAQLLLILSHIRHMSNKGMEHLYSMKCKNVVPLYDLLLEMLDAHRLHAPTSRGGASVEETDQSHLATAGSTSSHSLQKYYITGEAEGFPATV
Nature of the series: Binding affinity to ERalpha (unknown origin) by SPR assay.

For series [18], the system named is A549. Nature of the series: Antitumor activity against human A549 cells xenografted in nude mouse assessed as decrease in tumor weight at 10 mg/kg, ip administered daily for 21 days and measured every 2 to 3 days. To be noted: 504 h, time 21 day. It is filed as functional.
Series [19] deals with T1, Interleukin-6 receptor subunit beta (Homo sapiens). Nature of the series: Inhibition of GP130 in human A549 cells assessed as reduction in survivin protein expression after 24 hrs by Western blot analysis. It is filed as cell-based. To be noted: dose 3-9 µM.

SMILES strings stand for the structures. The source made the active and inactive calls. No cut-off for these calls is given here.

Usually AUC(0-t) stands for the area under the concentration-time curve up to a stated or last time point. A higher AUC(0-t) goes with more exposure. One may read the AUC(0-inf) as total exposure, with the tail of the curve extrapolated. A high value points to more exposure. Broadly, the bioavailability is dose-corrected exposure relative to a reference, in per cent. A high value points to much systemic uptake. The term MRT denotes the average time that molecules of a dose stay in the body. The term Kd denotes a measure of binding affinity in units of concentration. A low value points to tighter binding. The term inhibition in vivo denotes the change of the read-out against control, counted positive when it falls. As for `NC(=O)N1N=C(c2ccc(C(F)(F)F)cc2)CC1c1cn(Cc2ccc(OCCN3CCCCCC3)cc2)c2ccc(Br)cc12` (stereo unspecified), the result (in the series on A549 [1]; in series [11]) was Active. The Activity with A549 [2] is 2.5%; with A549 [3] it was “Dose-dependent effect”; with A549 [6], 33%; with A549 [7], 2.6%; in the series on A549 [15], 1.7%; in the series on A549 [16] it was 3.1%. For the same compound, the Activity entry in series [17] is on record as “Non-Toxic”. Besides, the AUC(0-t) in series [4] was found to be 468 ng·h/mL; in [13], 304 ng·h/mL. Moreover, in the series on A549 [5], the “fold change (FC)” value is recorded as 4.09. Further, in series [8], the AUC(0-inf) was 585 ng·h/mL. For the same compound, the bioavailability in series [9] came out at 5.6%. In [10], this compound registered an MRT of 13.7 h. The outcome in series [12] was inactive. In [14], this compound displayed a CL of 14.8 mL/min/kg. The inhibition result with Mus musculus was “Active”. The compound also returned a Kd at Estrogen receptor of 47.2 µM. Further, the inhibition in vivo at 10 mg/kg with A549 [18] came to 27.1%. Moreover, the inhibition result in series [19] was “Dose-dependent effect”.
